Patent US8273344B2, “Recombinant adeno-associated virus expressing human antisense gene CyP2J2 and its preparation methods” (priority 2004, dated 2012)
Where “and” joins values, the source holds several entries; their conditions need not be identical. Equal entries are not always repeated.

Assays:
[1] = tested on: transplantation tumor; assay: Growth of transplantation tumor under epoxygenase inhibitor (FIG. 17); assay type: in vivo; settings: FIG. 17, without joint use of 5-fluorouracil
[2] = tested on: four tumor cell lines; assay: Proliferation of four kinds of tumor cells in vitro; assay type: cell-based, human; settings: FIG. 15, dose dependence
Text: The epoxygenase metabolizes arachidonic acid to yield endogenous epoxyeicosatrienoic acids. Thus, the EETs concentration is increased indirectly. This can directly verity that the function of CYP epoxygenase for promoting proliferation of tumor cells.

[3] = tested on: four different kinds of tumor cell lines; assay: TNFα-induced apoptosis of tumor cells (DNA ladder, acridine orange staining, flow cytometry); assay type: cell-based, human; settings: for total apoptotic rate: flow cytometry; for number of apoptotic cells (acridine orange / ethidium bromide staining): fluorescent microscope, vs control group
Protocol: A week later, TNFα is used to induce the apoptosis of tumor cells. The apoptosis is measured using different methods. […] Thus, the EETs and epoxygenase gene resist the apoptosis of cancer cells induced by TNF-α. After PI staining and Annexin V-FITC/PI dobule staining separatively, the total apoptosis rate and early apoptosis rate of cells are calculated using flow cytometry.

[4] = tested on: Tca-8113, A549, Ncl-H446, and HepG2 cell lines; assay: Migration and invasion of tumor cells in modified Boyden chamber; assay type: cell-based, human; settings: 5 h, P<0.01
Protocol: The migration of epithelial cells in the modified Boyden chamber is measured using a conventional method. A polycarbonate filter membrane of […] is coated at 4° C. for 24 h using collagen IV (10 μg/mL) and Matrigel (11 μg/filter). The Tca-8113, A549, Ncl-H446, and HepG2 cell lines are washed with DMEM culture solution to 2×10^6/mL. 200 μL of DMEM containing 5% FBS is added to the low part of the Boyden chamber as a chemoattractant, and followed by covering a polycarbonate filter membrane. 800 μL of a cell suspension is added to the upper part of the Boyden chamber, cultured at 37° C. at 5% CO2 for 5 h. The device is disassembled and the membrane is collected. The cells are cleaned off, and the membrane is fixed with carbinol and stained with hematoxylin. Five fields of vision per membrane are observed under a 200× microscope. Subsequently, the number of migrating cells is calculated.

[5] = tested on: Akt, Bcl-2, Bcl-xL, Bax; assay type: cell-based
[6] = tested on: tumor; assay: Growth of tumor under EET blocker (FIG. 16); settings: FIG. 16, 100 nmol/L
[7] = EET pretreatment experiment, control 28.15%±4.7

Compound | growth of transplantation tumor [1] | growth of tumor cells [2] | total apoptotic rate [3, 7] | number of apoptotic cells (acridine orange / ethidium bromide staining) [3] | apoptosis of tumor cells (in words) ([3]; induced by TNF-α) | total apoptotic rate ([3]; transfection experiment, control 20.15%±3.5) | ability of migrating of cells relative to basal state [4] | expression of antiapoptosis protein Bcl-2 and Bcl-xL [5] | expression of apoptosis protein Bax [5] | phosphorylation of Akt [5] | growth of tumor [6] | formation of DNA ladder ([3]; TNFα-induced apoptosis)
C#CCCCCCCCCCCCCCCCC(=O)O [17-ODYA] | can inhibit | dose-dependently inhibits | 52.65%±3.6 | large | promotes significantly | 33.51%±6.1 | about 60 % of basal state | completely opposite effect | completely opposite effect | completely opposite effect | – | –
CCCCCC1OC1C/C=C\C/C=C\C/C=C\CCCC(=O)O (centres unmarked) [14, 15-EET] | – | – | – | – | – | – | – | – | – | – | can inhibit | –
epoxyeicosatrienoic acids [EETs] | – | – | 14.94%±3.5 and 11.72%±4.2 and 12.89%±2.7 | significantly less | – | – | – | increase | decrease | promote | – | decrease significantly
